Data from PubChem BioAssay (NCI).
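Values below derive from 48-hour exposures of cells grown in 96-well plates, with endpoints linearly interpolated between the two concentrations bracketing the appropriate inhibition level. GI50 marks 50% less growth. TGI is the concentration that stops growth completely.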

Assays:
Experiment in all cases: NCI tumour cell line growth inhibition, 48 h
[1] = test system: LOX IMVI melanoma
[2] = test system: OVCAR-4 ovarian
[3] = test system: SK-MEL-2 melanoma
[4] = test system: SF-539 CNS
[5] = test system: HCT-116 colon
[6] = test system: NCI-H226 lung
[7] = test system: KM12 colon
[8] = test system: MALME-3M melanoma
[9] = test system: OVCAR-3 ovarian
[10] = test system: TK-10 renal
[11] = test system: ACHN renal

Structure (SMILES) | TGI [1] [µM] | TGI [2] [µM] | TGI [3] [µM] | TGI [4] [µM] | TGI [5] [µM] | TGI [6] [µM] | TGI [7] [µM] | TGI [8] [µM] | TGI [9] [µM] | TGI [10] [µM] | TGI [11] [µM] | GI50 [10] [nM] | GI50 [1] [nM] | GI50 [2] [nM] | GI50 [3] [µM] | GI50 [11] [nM] | GI50 [6] [µM] | GI50 [7] [nM] | GI50 [9] [nM] | GI50 [4] [µM]
O=NN1C(c2ccccc2)C2CCCC(C2=O)C1c1ccccc1 (centres undefined) | 54.9 | 66.3 | 40.5 | > 100 | > 63.1 | 71 | 99.2 | 19.8 | 9.28 | – | – | – | – | – | – | – | – | – | – | –
COc1ccc(C(=O)O[C@H]2CC[C@@]3(C)[C@@H]4CC[C@H]5[C@]6(O)C[C@H](O)[C@@]7(O)[C@@H](CN8C[C@@H](C)CC[C@H]8[C@@]7(C)O)[C@]6(O)C[C@@]53OC24O)cc1OC | > 100 | > 100 | > 100 | > 100 | > 100 | > 100 | > 100 | > 100 | > 100 | > 100 | > 100 | – | – | – | – | – | – | – | – | –
Cc1cn(C2C=CC(COP(=O)(OCc3ccc([N+](=O)[O-])o3)N(C)CCCCCl)O2)c(=O)[nH]c1=O (centres undefined) | 13.5 | 17.2 | 12.9 | 12.3 | 20.8 | 23.6 | 24.1 | 7.36 | 4.8 | 34.3 | 28.6 | – | – | – | – | – | – | – | – | –
COc1ccc(NC(=S)NNC(=O)c2nsc3ccccc23)cc1 | > 100 | > 100 | 90.8 | 75.8 | > 100 | – | > 100 | – | 52.9 | > 100 | > 100 | – | – | – | – | – | – | – | – | –
Nc1c(OCC(=O)O)ccc2cc(S(=O)(=O)O)ccc12 | > 100 | > 100 | > 100 | > 100 | > 100 | > 100 | > 100 | > 100 | > 100 | > 100 | > 100 | – | – | – | – | – | – | – | – | –
c1cc(-c2ccc(-c3nc4ccc(C5=NCCN5)cc4s3)s2)ccc1C1=NCCN1 | – | 0.5 | 2.96 | 0.319 | 1.35 | – | 1.67 | 1.4 | 5.25 | 2.42 | 1.28 | – | – | – | – | – | – | – | – | –
O=C1C[C@H](COCc2ccccc2)NC(=O)C[C@H](COCc2ccccc2)NC(=O)C[C@H](COCc2ccccc2)N1 | > 100 | > 100 | > 100 | 75.1 | > 100 | > 100 | > 100 | > 100 | > 100 | 41.1 | > 100 | – | – | – | – | – | – | – | – | –
CN(C)CCCNc1ccc2nnn3c4ccc(OC(=O)c5ccccc5)cc4c(=O)c1c23 | 15.2 | 11.7 | 32.9 | 22.7 | 24.7 | – | 23.3 | 29.2 | 24.9 | 24.3 | 16.5 | – | – | – | – | – | – | – | – | –
CN(CCO)Cc1ncccc1O | > 100 | > 100 | > 100 | > 100 | – | > 100 | > 100 | > 100 | > 100 | > 100 | > 100 | – | – | – | – | – | – | – | – | –
CCCCN(CCCC)CCC(O)c1cc(-c2ccc(C(F)(F)F)cc2)nc(-c2ccc(C(F)(F)F)cc2)c1 (centres undefined) | > 100 | > 100 | > 100 | > 100 | > 100 | – | – | > 100 | > 100 | > 100 | > 100 | – | – | – | – | – | – | – | – | –
C[C@]12Cc3cnc(-c4ccccc4)nc3C[C@@H]1CC[C@@H]1[C@@H]2CC[C@@]2(C)[C@H]1CC[C@]2(C)O | 31.3 | 66.7 | 58.3 | 9.55 | 48.8 | 58.1 | > 67.8 | 43.5 | 54.4 | 39.1 | > 64.9 | – | – | – | – | – | – | – | – | –
CCOC(=O)Nc1sc2c(c1C#N)CC(C)CC2 (centres undefined) | 54.5 | > 100 | 7.87 | – | 25 | 35.3 | 36 | 76.9 | > 100 | 98 | 88.5 | – | – | – | – | – | – | – | – | –
COc1ccc(C(=O)NC2=C(Cl)C(=O)c3ccccc3C2=O)cc1 | 6.66 | 7.72 | 3.13 | 11.6 | 1.52 | 9.32 | 12.2 | 3.19 | 6.26 | 7.7 | 1.73 | – | – | – | – | – | – | – | – | –
COc1ccc(/C=C2\C[C@H]3[C@@H]4CC=C5C[C@@H](OC(C)=O)CC[C@]5(C)[C@H]4CC[C@]3(C)\C2=N\O)cc1OC | > 100 | > 100 | > 100 | > 100 | > 100 | 56.5 | > 100 | > 100 | > 100 | – | > 100 | – | – | – | – | – | – | – | – | –
CC(C)=Cc1cc(C)c2c3c(c(O)c(O)c(C)c13)C(C)=CC2=O | 38 | – | 44.2 | 71.6 | 37.7 | 50.9 | 45.8 | – | 52.7 | – | 56.2 | – | – | – | – | – | – | – | – | –
CC[C@H](C)C1=C(OC(C)=O)[N@+]2([O-])Oc3ccc(-c4c(O)c(O)c(-c5ccc(OC(C)=O)cc5)c(OC(C)=O)c4OC(C)=O)cc3O[C@]2([C@@H](C)CC)C(=O)N1O | > 50 | 26.9 | > 50 | > 50 | 19.5 | – | > 50 | 46.6 | 37.5 | > 50 | > 50 | – | – | – | – | – | – | – | – | –

Structure (SMILES) | TGI [1] [µM] | TGI [2] [µM] | TGI [3] [µM] | TGI [4] [µM] | TGI [5] [µM] | TGI [6] [µM] | TGI [7] [µM] | TGI [8] [µM] | TGI [9] [µM] | TGI [10] [µM] | TGI [11] [µM] | GI50 [10] [nM] | GI50 [1] [nM] | GI50 [2] [nM] | GI50 [3] [µM] | GI50 [11] [nM] | GI50 [6] [µM] | GI50 [7] [nM] | GI50 [9] [nM] | GI50 [4] [µM]
CC[C@@]1(OC(=O)CN(C)C)C(=O)OCc2c1cc1n(c2=O)Cc2cc3c(N)cccc3nc2-1 | 0.162 | 14.6 | > 100 | – | – | 0.161 | 0.342 | – | 0.218 | > 100 | 0.287 | 1680 | 14 | 625 | 1.24 | 28.6 | 0.0233 | 102 | 38.3 | –
Clc1cc2ccccc2c2ccccc12 | > 100 | > 100 | 73.3 | > 100 | > 100 | > 100 | > 100 | > 100 | > 100 | > 100 | > 100 | – | – | – | – | – | – | – | – | –
O=C(O)C1OC1C(=O)O (centres undefined) | > 100 | > 100 | > 100 | – | > 100 | > 100 | > 100 | > 100 | > 100 | > 100 | > 100 | – | – | – | – | – | – | – | – | –
CN(C)CCNCc1ccc2c(-c3ccccc3)nc3cc(Cl)c(Cl)cc3n12 | 14.9 | 26.7 | 20.6 | 14.4 | 16.3 | 37.5 | 24.7 | 33.1 | 35.9 | 22.2 | 14.8 | – | – | – | – | – | – | – | – | –
CCc1c2cc(OC)c(OC)cc2cc2c3cc(OC)c(OC)cc3cc[n+]12 (tested in a mixture with another compound) | > 63 | > 85.6 | 87.1 | > 94.9 | > 53.8 | 39.2 | > 61.5 | 44.2 | > 89.8 | > 100 | > 71.2 | – | – | – | – | – | – | – | – | –
COc1cc2c(cc1OC)C1c3ccccc3CCN1CCC2 (centres undefined) | > 100 | – | – | > 100 | > 100 | > 100 | > 100 | > 100 | > 100 | > 100 | > 100 | – | – | – | – | – | – | – | – | –
O=S(=O)(O)c1cc(S(=O)(=O)O)c2cc(N=Nc3c(O)ccc4ccccc34)ccc2c1 | > 100 | > 100 | > 100 | – | > 100 | > 100 | > 100 | > 100 | > 100 | > 100 | > 100 | – | – | – | – | – | – | – | – | –
CCOC(=O)c1nc2ccccc2n(CC)c1=O | > 100 | > 100 | > 100 | > 100 | > 100 | > 100 | > 100 | > 100 | > 100 | > 100 | > 100 | – | – | – | – | – | – | – | – | –
CO/N=C(/C)c1cccc(Nc2nc3ccc(Cl)cc3c3[nH]c4ccccc4c23)c1 | 26 | – | 26.9 | 30.1 | 14.7 | 27.9 | 14.6 | – | 18.5 | – | 13.5 | – | – | – | – | – | – | – | – | –
O=C1CNC(=O)/C(=C/c2c[nH]c3ccccc23)N1 | > 100 | > 100 | > 100 | – | > 100 | > 100 | > 100 | > 100 | > 100 | > 100 | > 100 | – | – | – | – | – | – | – | – | –
COC(=O)c1c(C)[nH]c2c1C(=O)C(=O)c1nc(C)c(C)nc1-2 | 24.1 | 28.7 | 16.3 | 24.8 | 18.2 | 26.7 | 37.1 | 15.7 | 23.3 | 9.68 | 47.3 | – | – | – | – | – | – | – | – | –
Clc1ccc(C2CC(c3cccc(Nc4ccncc4)c3)=NN2c2ccc(Cl)cc2)cc1 (centres undefined) | – | 3.08 | – | 3.03 | – | 38.3 | – | – | – | 3.5 | 3 | 1870 | – | 1660 | – | 1640 | 12.4 | – | – | 1.64
Cc1cc(C)c2c(n1)S(=O)(=O)N(CCCN1CCN(c3cccc(Cl)c3)CC1)/C(=C(\O)c1ccccc1)C2=O | > 100 | 88.8 | > 100 | > 100 | 92.5 | – | > 100 | > 100 | > 100 | 78.5 | > 100 | – | – | – | – | – | – | – | – | –
O=C(Nn1c(-c2cccs2)nc2ccc(I)cc2c1=O)c1ccccc1 | 46.9 | 80.6 | 69.4 | > 100 | > 100 | > 100 | 81.2 | – | 39.3 | 63.1 | > 100 | – | – | – | 24 | – | – | – | – | 30.1
OC(c1ccc(Cl)cc1)(c1ccc(Cl)cc1)c1cncnc1 | > 100 | 41.5 | 32 | – | 28.6 | 42.2 | 31.9 | > 100 | 32.2 | 57.5 | – | – | – | – | – | – | – | – | – | –
